Experiments:
Assay in all cases: relative viability (nuclei count vs DMSO), 5 days (fraction); higher = more cells survive
NCI-H460 = system: NCI-H460
Outline: (§1)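 After 5 days of treatment, lung cancer cells in 1536-well plates were fixed and stained in a single step (final 0.05% Triton X-100, 1% formaldehyde, 1 ug/ml Hoechst) and their nuclei counted on 4× images. Treatment had been applied by pin tool the day after seeding as one drug alone or as a fixed anchor-drug dose with five library-drug doses (not always all listed) in √10 steps. Relative viability is the nuclei count of treated wells divided by that of vehicle wells, and values are medians of duplicate plates.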

HCC-78 = system: HCC-78
Outline: as §1

NCI-H522 = system: NCI-H522
Outline: as §1

NCI-H2009 = system: NCI-H2009
Outline: as §1

NCI-H661 = system: NCI-H661
Outline: as §1

NCI-H2342 = system: NCI-H2342
Outline: as §1

NCI-H1648 = system: NCI-H1648
Outline: as §1

NCI-H358 = system: NCI-H358
Outline: as §1

Cc1sc2c(c1C)C(c1ccc(Cl)cc1)=N[C@@H](CC(=O)OC(C)(C)C)c1nnc(C)n1-2 [JQ1] + CC(=O)Nc1cccc(-n2c(=O)n(C3CC3)c(=O)c3c(Nc4ccc(I)cc4F)n(C)c(=O)c(C)c32)c1 [Trametinib] (partner 0.02 µM)
relative viability (NCI-H460; first compound 0.04 µM): 0.129 | relative viability (NCI-H460; first compound 0.1265 µM): 0.0734 | relative viability (NCI-H460; first compound 0.4 µM): 0.0575 | relative viability (NCI-H460; first compound 1.265 µM): 0.0314 | relative viability (NCI-H460; first compound 4 µM): 0.0297 | relative viability (HCC-78; first compound 0.04 µM): 0.791 | relative viability (HCC-78; first compound 0.1265 µM): 0.603 | relative viability (HCC-78; first compound 0.4 µM): 0.572 | relative viability (HCC-78; first compound 1.265 µM): 0.462 | relative viability (HCC-78; first compound 4 µM): 0.367 | relative viability (NCI-H522; first compound 0.04 µM): 0.767 | relative viability (NCI-H522; first compound 0.1265 µM): 0.631 | relative viability (NCI-H522; first compound 0.4 µM): 0.485 | relative viability (NCI-H522; first compound 1.265 µM): 0.482 | relative viability (NCI-H522; first compound 4 µM): 0.447 | relative viability (NCI-H2009; first compound 0.04 µM): 0.234 | relative viability (NCI-H2009; first compound 0.1265 µM): 0.197 | relative viability (NCI-H2009; first compound 0.4 µM): 0.173 | relative viability (NCI-H2009; first compound 1.265 µM): 0.15 | relative viability (NCI-H2009; first compound 4 µM): 0.135 | relative viability (NCI-H661; first compound 0.04 µM): 0.554 | relative viability (NCI-H661; first compound 0.1265 µM): 0.451 | relative viability (NCI-H661; first compound 0.4 µM): 0.508 | relative viability (NCI-H661; first compound 1.265 µM): 0.46 | relative viability (NCI-H661; first compound 4 µM): 0.441 | relative viability (NCI-H2342; first compound 0.04 µM): 0.782 | relative viability (NCI-H2342; first compound 0.1265 µM): 0.8 | relative viability (NCI-H2342; first compound 0.4 µM): 0.905 | relative viability (NCI-H2342; first compound 1.265 µM): 0.803 | relative viability (NCI-H2342; first compound 4 µM): 0.672 | relative viability (NCI-H1648; first compound 0.04 µM): 0.432 | relative viability (NCI-H1648; first compound 0.1265 µM): 0.473 | relative viability (NCI-H1648; first compound 0.4 µM): 0.337 | relative viability (NCI-H1648; first compound 1.265 µM): 0.303 | relative viability (NCI-H1648; first compound 4 µM): 0.245 | relative viability (NCI-H358; first compound 0.04 µM): 0.148 | relative viability (NCI-H358; first compound 0.1265 µM): 0.143 | relative viability (NCI-H358; first compound 0.4 µM): 0.122 | relative viability (NCI-H358; first compound 1.265 µM): 0.133 | relative viability (NCI-H358; first compound 4 µM): 0.127

COc1cc2nccc(Oc3ccc(NC(=O)Nc4cc(C)on4)c(Cl)c3)c2cc1OC [Tivozanib] + CC(=O)Nc1cccc(-n2c(=O)n(C3CC3)c(=O)c3c(Nc4ccc(I)cc4F)n(C)c(=O)c(C)c32)c1 [Trametinib] (partner 0.02 µM)
relative viability (NCI-H460; first compound 0.005 µM): 0.13 | relative viability (NCI-H460; first compound 0.01581 µM): 0.192 | relative viability (NCI-H460; first compound 0.05 µM): 0.254 | relative viability (NCI-H460; first compound 0.1581 µM): 0.13 | relative viability (NCI-H460; first compound 0.5 µM): 0.236 | relative viability (HCC-78; first compound 0.005 µM): 0.788 | relative viability (HCC-78; first compound 0.01581 µM): 0.828 | relative viability (HCC-78; first compound 0.05 µM): 0.711 | relative viability (HCC-78; first compound 0.1581 µM): 0.859 | relative viability (HCC-78; first compound 0.5 µM): 0.537 | relative viability (NCI-H522; first compound 0.005 µM): 0.877 | relative viability (NCI-H522; first compound 0.01581 µM): 0.732 | relative viability (NCI-H522; first compound 0.05 µM): 0.705 | relative viability (NCI-H522; first compound 0.1581 µM): 0.684 | relative viability (NCI-H522; first compound 0.5 µM): 0.804 | relative viability (NCI-H2009; first compound 0.005 µM): 0.269 | relative viability (NCI-H2009; first compound 0.01581 µM): 0.323 | relative viability (NCI-H2009; first compound 0.05 µM): 0.295 | relative viability (NCI-H2009; first compound 0.1581 µM): 0.204 | relative viability (NCI-H2009; first compound 0.5 µM): 0.339 | relative viability (NCI-H661; first compound 0.005 µM): 0.588 | relative viability (NCI-H661; first compound 0.01581 µM): 0.562 | relative viability (NCI-H661; first compound 0.05 µM): 0.618 | relative viability (NCI-H661; first compound 0.1581 µM): 0.522 | relative viability (NCI-H661; first compound 0.5 µM): 0.641 | relative viability (NCI-H2342; first compound 0.005 µM): 0.823 | relative viability (NCI-H2342; first compound 0.01581 µM): 0.834 | relative viability (NCI-H2342; first compound 0.05 µM): 1.92 | relative viability (NCI-H2342; first compound 0.5 µM): 0.733 | relative viability (NCI-H1648; first compound 0.005 µM): 0.478 | relative viability (NCI-H1648; first compound 0.01581 µM): 0.604 | relative viability (NCI-H1648; first compound 0.05 µM): 0.473 | relative viability (NCI-H1648; first compound 0.1581 µM): 0.442 | relative viability (NCI-H1648; first compound 0.5 µM): 0.429 | relative viability (NCI-H358; first compound 0.005 µM): 0.124 | relative viability (NCI-H358; first compound 0.01581 µM): 0.153 | relative viability (NCI-H358; first compound 0.05 µM): 0.161 | relative viability (NCI-H358; first compound 0.1581 µM): 0.108 | relative viability (NCI-H358; first compound 0.5 µM): 0.144

COc1cc2nccc(Oc3ccc(NC(=O)Nc4cc(C)on4)c(Cl)c3)c2cc1OC [Tivozanib] + CC(=O)c1c(C)c2cnc(Nc3ccc(N4CCNCC4)cn3)nc2n(C2CCCC2)c1=O [Palbociclib] (partner 0.5 µM)
relative viability (NCI-H460; first compound 0.005 µM): 0.147 | relative viability (NCI-H460; first compound 0.01581 µM): 0.196 | relative viability (NCI-H460; first compound 0.05 µM): 0.141 | relative viability (NCI-H460; first compound 0.1581 µM): 0.22 | relative viability (NCI-H460; first compound 0.5 µM): 0.209 | relative viability (HCC-78; first compound 0.005 µM): 0.514 | relative viability (HCC-78; first compound 0.01581 µM): 0.438 | relative viability (HCC-78; first compound 0.05 µM): 0.474 | relative viability (HCC-78; first compound 0.1581 µM): 0.416 | relative viability (HCC-78; first compound 0.5 µM): 0.463 | relative viability (NCI-H522; first compound 0.005 µM): 1 | relative viability (NCI-H522; first compound 0.01581 µM): 0.849 | relative viability (NCI-H522; first compound 0.05 µM): 0.889 | relative viability (NCI-H522; first compound 0.1581 µM): 0.894 | relative viability (NCI-H522; first compound 0.5 µM): 1.21 | relative viability (NCI-H2009; first compound 0.005 µM): 0.212 | relative viability (NCI-H2009; first compound 0.01581 µM): 0.209 | relative viability (NCI-H2009; first compound 0.05 µM): 0.23 | relative viability (NCI-H2009; first compound 0.1581 µM): 0.109 | relative viability (NCI-H2009; first compound 0.5 µM): 0.119 | relative viability (NCI-H661; first compound 0.005 µM): 0.401 | relative viability (NCI-H661; first compound 0.01581 µM): 0.387 | relative viability (NCI-H661; first compound 0.05 µM): 0.422 | relative viability (NCI-H661; first compound 0.1581 µM): 0.409 | relative viability (NCI-H661; first compound 0.5 µM): 0.387 | relative viability (NCI-H2342; first compound 0.005 µM): 0.495 | relative viability (NCI-H2342; first compound 0.01581 µM): 0.524 | relative viability (NCI-H2342; first compound 0.05 µM): 0.536 | relative viability (NCI-H2342; first compound 0.5 µM): 0.469 | relative viability (NCI-H1648; first compound 0.005 µM): 0.31 | relative viability (NCI-H1648; first compound 0.01581 µM): 0.272 | relative viability (NCI-H1648; first compound 0.05 µM): 0.269 | relative viability (NCI-H1648; first compound 0.1581 µM): 0.244 | relative viability (NCI-H1648; first compound 0.5 µM): 0.231 | relative viability (NCI-H358; first compound 0.005 µM): 0.123 | relative viability (NCI-H358; first compound 0.01581 µM): 0.165 | relative viability (NCI-H358; first compound 0.05 µM): 0.122 | relative viability (NCI-H358; first compound 0.1581 µM): 0.133 | relative viability (NCI-H358; first compound 0.5 µM): 0.157

— the supplement of paper PMC10307832
